Experimental data taken from PubChem BioAssay AID330 (DTP/NCI, 2004).
Toxic doses and inconclusive results are not listed. Rule for the calls: active = survival T/C of 150% or more; inactive = T/C below 125% in these data. Square brackets hold non-standard residues; d marks the D form. Peptide text beside a SMILES is read from it. ξ: configuration not given here. ξT = CC(O)C(N)C(=O)O

Test system: P388 leukemia ip, CD2F1 mice, survival T/C
Assay: NCI In Vivo Anticancer Drug Screen. Data for tumor model P388 Leukemia (intraperitoneal) in CD2F1 (CDF1) mice
Details: endpoint: median survival time, higher = longer survival
Outline: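 Mice carrying the transplanted tumor received test compound or vehicle. Survival was recorded in each group, and the value is the treated-group measurement divided by that of the vehicle-treated control group.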

[1] = dose: 100.0 mg/kg/injection, schedule: Q04DX003 (ip), vehicle: saline
[2] = dose: 200.0 mg/kg/injection, schedule: Q04DX003 (ip), vehicle: saline
[3] = dose: 400.0 mg/kg/injection, schedule: Q04DX003 (ip), vehicle: saline
[4] = dose: 100.0 mg/kg/injection, schedule: Q04DX003 (ip), vehicle: Klucel (hydroxypropylcellulose) (HPC)
[5] = dose: 50.0 mg/kg/injection, schedule: Q01DX005 (ip), vehicle: Klucel (hydroxypropylcellulose) (HPC)
[6] = dose: 100.0 mg/kg/injection, schedule: Q01DX005 (ip), vehicle: Klucel (hydroxypropylcellulose) (HPC)
[7] = dose: 200.0 mg/kg/injection, schedule: Q01DX005 (ip), vehicle: Klucel (hydroxypropylcellulose) (HPC)
[8] = dose: 50.0 mg/kg/injection, schedule: Q01DX005 (ip), vehicle: saline
[9] = dose: 100.0 mg/kg/injection, schedule: Q01DX005 (ip), vehicle: saline
[10] = dose: 50.0 mg/kg/injection, schedule: Q01DX005 (ip), vehicle: saline with Tween-80
[11] = dose: 100.0 mg/kg/injection, schedule: Q01DX005 (ip), vehicle: saline with Tween-80
[12] = dose: 200.0 mg/kg/injection, schedule: Q01DX005 (ip), vehicle: saline with Tween-80
[13] = dose: 50.0 mg/kg/injection, schedule: Q01DX009 (ip), vehicle: saline with Tween-80
[14] = dose: 100.0 mg/kg/injection, schedule: Q01DX009 (ip), vehicle: saline with Tween-80
[15] = dose: 100.0 mg/kg/injection, schedule: Q04DX003 (ip), vehicle: saline with Tween-80
[16] = dose: 200.0 mg/kg/injection, schedule: Q01DX009 (ip), vehicle: saline with Tween-80
[17] = dose: 200.0 mg/kg/injection, schedule: Q04DX003 (ip), vehicle: saline with Tween-80
[18] = dose: 400.0 mg/kg/injection, schedule: Q04DX003 (ip), vehicle: saline with Tween-80
[19] = dose: 60.0 mg/kg/injection, schedule: Q01DX005 (ip), vehicle: saline
[20] = dose: 120.0 mg/kg/injection, schedule: Q01DX005 (ip), vehicle: saline
[21] = dose: 240.0 mg/kg/injection, schedule: Q01DX005 (ip), vehicle: saline
[22] = dose: 200.0 mg/kg/injection, schedule: Q01DX005 (ip), vehicle: saline

Measured: T/C

CCOC(=O)C(NC(C)=O)(C(=O)OCC)c1ccc(Cl)cn1
inactive: [1] 103 % of control | [2] 100 % of control | [3] 95 % of control

COc1cc([N+](=O)[O-])ccc1NC(=O)C(F)(F)F
inactive: dose: 60.0 mg/kg/injection, schedule: Q01DX005 (ip), vehicle: saline with Tween-80 100 % of control | dose: 120.0 mg/kg/injection, schedule: Q01DX005 (ip), vehicle: saline with Tween-80 104 % of control | dose: 240.0 mg/kg/injection, schedule: Q01DX005 (ip), vehicle: saline with Tween-80 101 % of control

Clc1nnc(-c2ccccc2)s1
inactive: dose: 25.0 mg/kg/injection, schedule: Q04DX003 (ip), vehicle: Klucel (hydroxypropylcellulose) (HPC) 100 % of control | dose: 50.0 mg/kg/injection, schedule: Q04DX003 (ip), vehicle: Klucel (hydroxypropylcellulose) (HPC) 102 % of control | [4] 100 % of control

COc1ccc(N2CC=C(c3ccccc3)OP2(=O)N2CC2)cc1 (configuration not stated)
inactive: [5] 106 % of control | [6] 105 % of control | [7] 95 % of control

COc1cccc(C(=O)c2ccncc2C)c1OC
inactive: dose: 12.5 mg/kg/injection, schedule: Q01DX009 (ip), vehicle: water 103 % of control | dose: 25.0 mg/kg/injection, schedule: Q01DX009 (ip), vehicle: water 102 % of control | dose: 50.0 mg/kg/injection, schedule: Q01DX009 (ip), vehicle: water 100 % of control | dose: 100.0 mg/kg/injection, schedule: Q01DX009 (ip), vehicle: water 97 % of control | dose: 200.0 mg/kg/injection, schedule: Q01DX009 (ip), vehicle: water 102 % of control

CC(Cc1ccccc1)N(C)C1=C(CCC#N)CC(C(C)(C)C)CC1 (configuration not stated)
inactive: [8] 100 % of control | [9] 100 % of control

COc1ccc(CCNC(=O)C(=O)c2c[nH]c3ccccc23)cc1OC
inactive: [10] 90 % of control | [11] 88 % of control | [12] 89 % of control

Cc1cc(Cl)c(C)cc1Cl
inactive: [13] 91 % of control | [14] 95 % of control | [15] 105 % of control | [16] 95 % of control | [17] 110 % of control | [18] 110 % of control

CC(OCc1ccccc1)C(NC(=O)OC(C)(C)C)C(=O)ON1C(=O)CCC1=O (configuration not stated)
inactive: [5] 109 % of control | [6] 105 % of control | [7] 96 % of control

CC(C)(C)C(=O)C1C(=O)c2ccccc2C1=O
inactive: dose: 1.56 mg/kg/injection, schedule: Q04DX003 (ip), vehicle: Klucel (hydroxypropylcellulose) (HPC) 98 % of control | dose: 3.12 mg/kg/injection, schedule: Q04DX003 (ip), vehicle: Klucel (hydroxypropylcellulose) (HPC) 89 % of control

COc1cc([N+](=O)[O-])ccc1C
inactive: dose: 100.0 mg/kg/injection, schedule: Q04DX003 (ip), vehicle: other 104 % of control | dose: 200.0 mg/kg/injection, schedule: Q04DX003 (ip), vehicle: other 100 % of control | dose: 400.0 mg/kg/injection, schedule: Q04DX003 (ip), vehicle: other 100 % of control

NCCNC(c1ccccc1)C(O)c1ccccc1 (configuration not stated)
inactive: dose: 50.0 mg/kg/injection, schedule: Q04DX002 (ip), vehicle: Klucel (hydroxypropylcellulose) (HPC) 102 % of control | dose: 100.0 mg/kg/injection, schedule: Q04DX002 (ip), vehicle: Klucel (hydroxypropylcellulose) (HPC) 100 % of control

CCNNC(=O)[C@@H]1[C@H](c2cc(OC)c(OC)c(OC)c2)c2cc3c(cc2[C@H](O)[C@H]1CO)OCO3
inactive: [15] 109 % of control | [17] 113 % of control | [18] 104 % of control

CCc1cc(-c2cc(CC)nc(N)n2)nc(N)n1
inactive: [19] 97 % of control | [20] 104 % of control | [21] 100 % of control

CC(=O)ON(C(C)=O)c1ccc(C(=O)OC2(C)CC(C)(C)N=N2)cc1 (configuration not stated)
inactive: dose: 12.5 mg/kg/injection, schedule: Q01DX009 (ip), vehicle: saline with Tween-80 86 % of control | [14] 87 % of control | [16] 106 % of control

C=C(C)/C=C/S(=O)c1ccccc1 (configuration not stated)
inactive: [5] 100 % of control | [6] 97 % of control | [7] 98 % of control

CCOC(=O)C1=C(C(C)=O)C(c2ccccc2[N+](=O)[O-])C(C(C)=O)=C(C(=O)OCC)N1
inactive: [19] 104 % of control | [20] 105 % of control | [21] 96 % of control

NCCc1c[nH]c2ccc(O)cc12 (tested in a mixture with another compound)
inactive: dose: 50.0 mg/kg/injection, schedule: Q01DX009 (ip), vehicle: other 113 % of control | [19] 102 % of control | dose: 100.0 mg/kg/injection, schedule: Q01DX009 (ip), vehicle: other 109 % of control | [20] 100 % of control | dose: 200.0 mg/kg/injection, schedule: Q01DX009 (ip), vehicle: other 91 % of control | [21] 99 % of control

CC(=O)Nc1c(Br)cc(Br)c2c1C(=O)c1ccccc1-2
inactive: [5] 91 % of control | [6] 91 % of control | [7] 97 % of control

CC(O)C(N)C(=O)NCC(=O)NCC(=O)O (stereo not drawn) (H-[ξT]-Gly-Gly-OH)
inactive: [8] 101 % of control | [9] 101 % of control | [22] 104 % of control

OCCc1ccccn1
inactive: dose: 50.0 mg/kg/injection, schedule: Q01DX009 (ip), vehicle: saline 102 % of control | dose: 100.0 mg/kg/injection, schedule: Q01DX009 (ip), vehicle: saline 111 % of control | dose: 200.0 mg/kg/injection, schedule: Q01DX009 (ip), vehicle: saline 102 % of control | dose: 400.0 mg/kg/injection, schedule: Q01DX009 (ip), vehicle: saline 102 % of control

Clc1cc2c(c3ncccc13)OCN(Cc1ccccc1)C2
inactive: [4] 91 % of control | dose: 200.0 mg/kg/injection, schedule: Q04DX003 (ip), vehicle: Klucel (hydroxypropylcellulose) (HPC) 92 % of control | dose: 400.0 mg/kg/injection, schedule: Q04DX003 (ip), vehicle: Klucel (hydroxypropylcellulose) (HPC) 92 % of control

Cc1ccc(S(=O)(=O)Cl)cc1Cl
inactive: dose: 25.0 mg/kg/injection, schedule: Q01DX009 (ip), vehicle: saline with Tween-80 101 % of control | [13] 102 % of control | [14] 101 % of control

CC(=O)NC(C(=O)O)C(C)(C)SN=O (configuration not stated)
inactive: [13] 93 % of control | [14] 98 % of control | [16] 95 % of control

Cc1cc(-c2cccc3ccccc23)[n+]([O-])cc1C
inactive: [10] 101 % of control | [11] 101 % of control | [12] 90 % of control

NC1=NC(c2ccccc2Cl)CC(c2cc3ccccc3o2)=N1 (configuration not stated)
inactive: dose: 100.0 mg/kg/injection, schedule: Q01DX001 (ip), vehicle: saline with Tween-80 92 % of control | dose: 200.0 mg/kg/injection, schedule: Q01DX001 (ip), vehicle: saline with Tween-80 89 % of control | dose: 400.0 mg/kg/injection, schedule: Q01DX001 (ip), vehicle: saline with Tween-80 100 % of control

COc1ccc2ccc3c4c(c(=O)[nH]c3c2n1)CCC4
inactive: [1] 101 % of control | [2] 92 % of control | [3] 105 % of control

CCCCCCCCCC1OCN2CCCCC12 (configuration not stated)
inactive: [8] 105 % of control | [9] 96 % of control | [22] 115 % of control

O=[N+]([O-])c1cc(S(=O)(=O)O)cc([N+](=O)[O-])c1Cl
inactive: dose: 25.0 mg/kg/injection, schedule: Q01DX009 (ip), vehicle: Klucel (hydroxypropylcellulose) (HPC) 116 % of control | dose: 50.0 mg/kg/injection, schedule: Q01DX009 (ip), vehicle: Klucel (hydroxypropylcellulose) (HPC) 114 % of control | dose: 100.0 mg/kg/injection, schedule: Q01DX009 (ip), vehicle: Klucel (hydroxypropylcellulose) (HPC) 119 % of control

Cc1nc2cc(C(F)(F)F)cc(N)c2n1-c1ccccc1
inactive: [10] 113 % of control | [11] 106 % of control | [12] 111 % of control

S=C1N(c2ccc(Br)cc2)C2=Nc3ccccc3SC(=C2N=Nc2ccccc2)N1c1ccc(Cl)cc1
inactive: [10] 94 % of control | [11] 90 % of control | [12] 93 % of control

CC1(C(=O)O)C2[Se]c3cc[se]c3C2C1(C)C(=O)O (configuration not stated)
inactive: [10] 100 % of control | [11] 100 % of control | [12] 104 % of control
